# Experimental data reported in patent publication US20210346359A1, “Use of CFTR Modulators For Treating Cerebrovascular Conditions” (Qanatpharma AG, priority 2018, published 2021).
# “Also recorded” adds a separate entry of the source.
# Columns and labels:
# [1] = tested on: human CFTR mRNA; experiment: Quantitative PCR of CFTR mRNA in baby hamster kidney fibroblast cells stably expressing human CFTR; type: cell-based; conditions: 6 μmol/L, 24 h
# Description: Procedures for isolating and culturing mesenteric artery smooth muscle cells were carried out as described in (10). Briefly, mesenteric artery segments were isolated, cut into small pieces and digested with trypsin, collagenase and elastase. The resulting cell suspension was washed several times in phosphate-buffered saline and plated in Dulbecco's Modified Eagle Medium (DMEM) culture media containing 10% fetal bovine serum and 1% penicillin-streptomycin. Cell cultures were maintained at 37° C. with 5% CO2 and split at 106 cells seeding density. […]
# Resistance artery RNA was isolated with Norgen Biotek (Thorold, Canada) “Total RNA Purification Micro” spin columns, using the proteinase K digestion and DNA removal procedures, as directed by the manufacturer's instructions. The eluted RNA was quantified with an Agilent Technologies RNA 6000 Pico Kit and Bioanalyzer; the analysis confirmed that high-quality RNA was retrieved from the artery tissue samples (RNA Integrity [RIN]: Cerebral=8.4±0.1, n=5; Cremaster=8.2±0.4, n=6). […]
# Quantitative FOR was performed using an Applied Biosystems ViiA™ 7 Real Time FCR system and Power SYBR® Green FCR master mix (both distributed by lnvitrogen Life Technologies). […] Gene targets were assessed in triplicate, using 1 ng of cDNA generated from the reverse transcription; negative controls received water. […]
# [2] = tested on: olfactory cerebral arteries; experiment: Myogenic tone of isolated olfactory cerebral arteries after in vivo treatment; parameters: species or system mouse
# Description: Induction of Subarachnoid Hemorrhage: A well-characterized model of experimental SAH (6) was used. Briefly, each mouse was anaesthetized (isoflurane) and its head was fixed in a stereotactic frame: a 7 mm incision was made along the midline of the anterior scalp and 0.9 mm hole drilled into the skull 4.5 mm anterior to the bregma. A spinal needle was advanced to the chiasmatic cistern: 80 μl of arterial blood was injected into the intracranial space over 10 seconds. […] Following injection, the scalp incision was closed. Buprenorphine (0.05 mg/kg; 0.5-1.0 ml volume) was administered twice/day (initiated immediately following the SAH surgical procedure). Sham-operated animals underwent an identical surgical procedure, with sterile saline injected instead of blood. Olfactory cerebral arteries were isolated at 2 days post-SAH induction.
# Isolation and functional assessment of resistance arteries: Mouse olfactory (a first branch of the anterior cerebral artery) and PCAs were carefully dissected, cannulated onto micropipettes, stretched to their in vivo lengths and pressurized to 45 mmHg, as previously described (3,6); mouse skeletal muscle resistance arteries were dissected from the cremaster muscle, cannulated and pressurized to 60 mmHg. All functional experiments were conducted in 3-morpholinopropanesulfonic acid (MOPS) buffered saline at 37° C. with no perfusion. […]
# Myogenic responses were elicited by step-wise 20 mmHg increases in transmural pressure from 20 mmHg to 80 mmHg (olfactory arteries) or 100 mmHg (posterior cerebral arteries and cremaster skeletal muscle resistance arteries). At each pressure step, vessel diameter (diaactive) was measured once a steady state was reached (5 min). Vessels requiring treatment (e.g., CFTR(inh)-172) were incubated with the reagent in MOPS for 30 min and myogenic responses were then assessed in the presence of that reagent. Following completion of all diaactive measurements, MOPS buffer was replaced with a Ca^2+-free version and maximal passive diameter (diamax) was recorded at each pressure step.
# Myogenic tone was calculated as the percent constriction in relation to the maximal diameter at each respective transmural pressure: tone (% of diamax)=[(diamax−diaactive)/diamax]×100, where diaactive is the vessel diameter in MOPS containing Ca^2+ and diamax is the diameter in Ca^2+-free MOPS. Analyses of vasomotor responses to phenylephrine used the same calculation, only in this case, diaactive represents the vessel diameter at steady state following application of the given agent and diamax represents the maximal diameter measured under Ca^2+-free conditions.
# [3] = arteries from SAH mice, in vivo 3 mg/kg daily for 2 days
SMILES,CFTR mRNA expression [1],"olfactory cerebral artery myogenic tone ([2]; arteries from CFTR knockout mice, in vivo 3 mg/kg daily for 2 days)","olfactory cerebral artery myogenic tone [2, 3]","olfactory cerebral artery myogenic tone ([2]; arteries from sham-operated mice, 3 mg/kg i.p. daily for 2 days, 3 mg/kg)"
"O=C(Nc1ncc(C(c2ccccc2Cl)N2CCC(O)C2)s1)C1(c2ccc3c(c2)OCO3)CC1 (stereo not drawn) [C18, 1-(benzo[d][1,3]dioxol-5-yl)-N-(5-((2-chlorophenyl)(3-hydroxypyrrolidin-1-yl)methyl)thiazol-2-yl)cyclopropanecarboxamide]",no affect; also recorded: does not influence,not susceptible; also recorded: not observed,normalizes; also recorded: reduces,does not affect; also recorded: does not alter
Cc1ccc(NC(=O)C2(c3ccc4c(c3)OC(F)(F)O4)CC2)nc1-c1cccc(C(=O)O)c1 [lumacaftor],unaffected; also recorded: does not influence,–,normalizes; also recorded: reduces,–
